Assay results taken from ChEMBL document CHEMBL1641539 (Bioorg Med Chem Lett, 2011).

What was measured:
[1] = molecular target: Receptor-type tyrosine-protein kinase FLT3 (Homo sapiens) (UniProt P36888); assay: Inhibition of human Flt3 at 10 uM after 60 mins by TR-FRET assay; values are per cent of control
[2] = molecular target: Casein kinase I isoform gamma-3 (Homo sapiens) (UniProt Q9Y6M4); assay: Inhibition of human CK1gamma3 at 10 uM after 60 mins by TR-FRET assay; values are per cent of control
[3] = molecular target: Protein kinase C theta type (Homo sapiens) (UniProt Q04759); assay: Inhibition of human PKCtheta at 10 uM after 60 mins by TR-FRET assay; values are per cent of control
[4] = molecular target: Death-associated protein kinase 2 (Homo sapiens) (UniProt Q9UIK4); assay: Inhibition of human DAPK2 at 10 uM after 60 mins by TR-FRET assay; values are per cent of control
[5] = molecular target: Dual specificity protein kinase CLK3 (Homo sapiens) (UniProt P49761); assay: Inhibition of human CLK3 at 10 uM after 60 mins by TR-FRET assay; values are per cent of control
[6] = molecular target: Casein kinase I isoform gamma-2 (Homo sapiens) (UniProt P78368); assay: Inhibition of human CK1gamma2 at 10 uM after 60 mins by TR-FRET assay; values are per cent of control
[7] = molecular target: Serine/threonine-protein kinase MRCK beta (Homo sapiens) (UniProt Q9Y5S2); assay: Inhibition of human MRCKbeta at 10 uM after 60 mins by TR-FRET assay; values are per cent of control
[8] = molecular target: Serine/threonine-protein kinase Nek11 (Homo sapiens) (UniProt Q8NG66); assay: Inhibition of human NEK11 at 10 uM after 60 mins by TR-FRET assay; values are per cent of control
Serine/threonine-protein kinase Nek11 (Homo sapiens), sequence (Q8NG66 whole entry, canonical isoform): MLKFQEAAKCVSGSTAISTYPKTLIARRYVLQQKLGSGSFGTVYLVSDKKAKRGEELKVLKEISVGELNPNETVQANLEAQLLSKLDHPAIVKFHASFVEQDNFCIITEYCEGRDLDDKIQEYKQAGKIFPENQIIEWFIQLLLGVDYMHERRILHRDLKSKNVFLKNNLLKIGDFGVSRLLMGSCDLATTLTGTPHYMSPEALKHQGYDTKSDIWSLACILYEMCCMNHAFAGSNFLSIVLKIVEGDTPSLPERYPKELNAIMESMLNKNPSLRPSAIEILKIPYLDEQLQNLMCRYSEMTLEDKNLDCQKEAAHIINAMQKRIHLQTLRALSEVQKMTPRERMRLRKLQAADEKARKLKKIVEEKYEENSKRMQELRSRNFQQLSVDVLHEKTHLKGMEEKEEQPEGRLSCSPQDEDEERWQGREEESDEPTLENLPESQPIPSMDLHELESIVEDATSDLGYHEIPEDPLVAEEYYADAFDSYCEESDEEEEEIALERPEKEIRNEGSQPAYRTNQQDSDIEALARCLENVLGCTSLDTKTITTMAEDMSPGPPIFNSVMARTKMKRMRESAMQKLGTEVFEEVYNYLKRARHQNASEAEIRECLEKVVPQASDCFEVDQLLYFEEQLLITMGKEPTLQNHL

[9] = molecular target: Casein kinase I isoform gamma-1 (Homo sapiens) (UniProt Q9HCP0); assay: Inhibition of human CK1gamma1 at 10 uM after 60 mins by TR-FRET assay; values are per cent of control
[10] = test system: Platelet-derived growth factor receptor alpha (Homo sapiens), P16234 [D842V]; assay: Inhibition of human PDGFRalpha D842V mutant at 10 uM after 60 mins by TR-FRET assay; values are per cent of control
[11] = molecular target: Serine/threonine-protein kinase D2 (Homo sapiens) (UniProt Q9BZL6); assay: Inhibition of human PKD2 at 10 uM after 60 mins by TR-FRET assay; values are per cent of control
[12] = molecular target: Serine/threonine-protein kinase WNK2 (Homo sapiens) (UniProt Q9Y3S1); assay: Inhibition of human WNK2 at 10 uM after 60 mins by TR-FRET assay; values are per cent of control
[13] = molecular target: Proto-oncogene tyrosine-protein kinase Src (Homo sapiens) (UniProt P12931); assay: Inhibition of human c-SRC at 10 uM after 60 mins by TR-FRET assay; values are per cent of control
Proto-oncogene tyrosine-protein kinase Src (Homo sapiens), sequence (P12931 2-536 limits assumed): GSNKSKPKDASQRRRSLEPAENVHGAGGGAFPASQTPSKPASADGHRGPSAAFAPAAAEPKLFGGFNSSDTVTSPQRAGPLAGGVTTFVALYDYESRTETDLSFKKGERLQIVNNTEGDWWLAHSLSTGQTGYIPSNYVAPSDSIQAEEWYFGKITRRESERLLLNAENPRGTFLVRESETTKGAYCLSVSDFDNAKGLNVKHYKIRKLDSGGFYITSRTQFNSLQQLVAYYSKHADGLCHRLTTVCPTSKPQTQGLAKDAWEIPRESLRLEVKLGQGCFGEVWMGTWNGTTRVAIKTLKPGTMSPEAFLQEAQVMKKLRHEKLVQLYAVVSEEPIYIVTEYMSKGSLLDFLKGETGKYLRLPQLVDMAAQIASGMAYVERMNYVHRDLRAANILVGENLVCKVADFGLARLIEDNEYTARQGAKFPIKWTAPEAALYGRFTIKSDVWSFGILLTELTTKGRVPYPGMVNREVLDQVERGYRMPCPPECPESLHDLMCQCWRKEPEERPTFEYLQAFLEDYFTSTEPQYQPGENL

[14] = molecular target: Calcium/calmodulin-dependent protein kinase type 1 (Homo sapiens) (UniProt Q14012); assay: Inhibition of human CaMK1 at 10 uM after 60 mins by TR-FRET assay; values are per cent of control
[15] = molecular target: RAC-gamma serine/threonine-protein kinase (Homo sapiens) (UniProt Q9Y243); assay: Inhibition of human PKBgamma at 10 uM after 60 mins by TR-FRET assay; values are per cent of control
RAC-gamma serine/threonine-protein kinase (Homo sapiens), sequence (Q9Y243 whole entry): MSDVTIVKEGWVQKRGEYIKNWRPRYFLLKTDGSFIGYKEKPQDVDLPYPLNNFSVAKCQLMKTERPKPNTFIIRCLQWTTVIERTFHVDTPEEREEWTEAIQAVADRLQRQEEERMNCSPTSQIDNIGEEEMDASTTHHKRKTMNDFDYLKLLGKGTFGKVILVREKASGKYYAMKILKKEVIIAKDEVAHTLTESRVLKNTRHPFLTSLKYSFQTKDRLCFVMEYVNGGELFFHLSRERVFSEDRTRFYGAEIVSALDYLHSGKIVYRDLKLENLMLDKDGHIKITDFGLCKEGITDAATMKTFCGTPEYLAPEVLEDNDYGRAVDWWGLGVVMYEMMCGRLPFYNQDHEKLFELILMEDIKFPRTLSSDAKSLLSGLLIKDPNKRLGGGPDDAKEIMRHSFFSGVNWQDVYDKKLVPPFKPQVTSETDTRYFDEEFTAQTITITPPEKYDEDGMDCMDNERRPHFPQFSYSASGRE

[16] = molecular target: Serine/threonine-protein kinase 4 (Homo sapiens) (UniProt Q13043); assay: Inhibition of human MST1 at 10 uM after 60 mins by TR-FRET assay; settings: values are per cent of control
[17] = molecular target: Tyrosine-protein kinase JAK2 (Homo sapiens) (UniProt O60674); assay: Inhibition of human JAK2 at 10 uM after 60 mins by TR-FRET assay; settings: values are per cent of control
[18] = molecular target: Tyrosine-protein kinase ZAP-70 (Homo sapiens) (UniProt P43403); assay: Inhibition of human ZAP-70 at 10 uM after 60 mins by TR-FRET assay; values are per cent of control
Tyrosine-protein kinase ZAP-70 (Homo sapiens), sequence (P43403 whole entry): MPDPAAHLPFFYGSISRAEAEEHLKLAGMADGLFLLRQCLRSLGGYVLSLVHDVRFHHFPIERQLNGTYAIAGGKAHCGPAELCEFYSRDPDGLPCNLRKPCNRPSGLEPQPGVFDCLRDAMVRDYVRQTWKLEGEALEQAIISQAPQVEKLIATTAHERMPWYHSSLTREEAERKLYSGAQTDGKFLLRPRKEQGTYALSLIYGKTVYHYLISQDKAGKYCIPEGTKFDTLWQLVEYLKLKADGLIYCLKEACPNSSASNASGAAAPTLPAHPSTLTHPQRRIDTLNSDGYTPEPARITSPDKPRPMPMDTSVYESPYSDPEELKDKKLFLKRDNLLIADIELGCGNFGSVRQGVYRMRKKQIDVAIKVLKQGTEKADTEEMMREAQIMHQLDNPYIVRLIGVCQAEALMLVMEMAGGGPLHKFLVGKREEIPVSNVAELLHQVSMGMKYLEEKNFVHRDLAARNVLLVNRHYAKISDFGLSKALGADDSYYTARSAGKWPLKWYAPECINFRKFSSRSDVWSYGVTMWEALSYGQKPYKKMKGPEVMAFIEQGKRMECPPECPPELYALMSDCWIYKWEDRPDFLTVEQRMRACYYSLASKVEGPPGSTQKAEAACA

[19] = molecular target: Protein kinase C alpha type (Homo sapiens) (UniProt P17252); assay: Inhibition of human PKCalpha at 10 uM after 60 mins by TR-FRET assay; values are per cent of control
[20] = molecular target: Proto-oncogene tyrosine-protein kinase Src (Homo sapiens) (UniProt P12931); assay: Inhibition of human Src (1 to 530) at 10 uM after 60 mins by TR-FRET assay; values are per cent of control
[21] = test system: Mast/stem cell growth factor receptor Kit (Homo sapiens), P10721 [V654A]; assay: Inhibition of human c-Kit V654A mutant at 10 uM after 60 mins by TR-FRET assay; values are per cent of control
[22] = test system: Tyrosine-protein kinase BTK (Homo sapiens), Q06187 [R28H]; assay: Inhibition of human BTK R28H mutant at 10 uM after 60 mins by TR-FRET assay; values are per cent of control
[23] = molecular target: Focal adhesion kinase 1 (Homo sapiens) (UniProt Q05397); assay: Inhibition of human FAK at 10 uM after 60 mins by TR-FRET assay; values are per cent of control
[24] = molecular target: 3-phosphoinositide-dependent protein kinase 1 (Homo sapiens) (UniProt O15530); assay: Inhibition of human PDK1 at 10 uM after 60 mins by TR-FRET assay; values are per cent of control
[25] = molecular target: MAP kinase-activated protein kinase 2 (Homo sapiens) (UniProt P49137); assay: Inhibition of human MAPKAP-K2 at 10 uM after 60 mins by TR-FRET assay; settings: values are per cent of control
[26] = molecular target: Mitogen-activated protein kinase 8 (Homo sapiens, UniProt P45983); assay: Inhibition of human JNK1alpha1 at 10 uM after 60 mins by TR-FRET assay; settings: values are per cent of control
[27] = molecular target: Tyrosine-protein kinase Fes/Fps (Homo sapiens) (UniProt P07332); assay: Inhibition of human Fes at 10 uM after 60 mins by TR-FRET assay; values are per cent of control
Tyrosine-protein kinase Fes/Fps (Homo sapiens), sequence (P07332 whole entry): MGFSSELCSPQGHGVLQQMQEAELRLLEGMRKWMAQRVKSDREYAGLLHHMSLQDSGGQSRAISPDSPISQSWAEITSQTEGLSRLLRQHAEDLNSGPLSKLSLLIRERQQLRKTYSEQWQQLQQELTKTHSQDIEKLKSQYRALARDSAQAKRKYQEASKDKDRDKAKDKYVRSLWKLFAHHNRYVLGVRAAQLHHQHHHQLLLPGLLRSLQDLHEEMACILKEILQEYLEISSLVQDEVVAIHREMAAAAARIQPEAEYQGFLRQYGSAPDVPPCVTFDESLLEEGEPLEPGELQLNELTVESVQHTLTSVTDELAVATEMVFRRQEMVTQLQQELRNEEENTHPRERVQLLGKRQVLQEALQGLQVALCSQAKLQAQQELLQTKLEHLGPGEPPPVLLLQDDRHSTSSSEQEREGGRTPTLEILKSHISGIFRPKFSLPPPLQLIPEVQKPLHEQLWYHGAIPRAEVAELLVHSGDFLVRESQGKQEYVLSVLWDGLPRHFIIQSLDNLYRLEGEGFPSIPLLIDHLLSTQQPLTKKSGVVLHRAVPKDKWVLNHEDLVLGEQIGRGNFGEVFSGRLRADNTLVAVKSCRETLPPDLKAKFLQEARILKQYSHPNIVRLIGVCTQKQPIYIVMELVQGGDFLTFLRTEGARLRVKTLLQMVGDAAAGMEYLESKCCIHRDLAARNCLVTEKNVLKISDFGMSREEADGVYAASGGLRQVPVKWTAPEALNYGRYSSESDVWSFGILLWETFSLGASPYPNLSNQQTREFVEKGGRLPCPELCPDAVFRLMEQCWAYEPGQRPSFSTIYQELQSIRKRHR

[28] = molecular target: Serine/threonine-protein kinase tousled-like 2 (Homo sapiens) (UniProt Q86UE8); assay: Inhibition of human TLK2 at 10 uM after 60 mins by TR-FRET assay; values are per cent of control

Receptor-type tyrosine-protein kinase FLT3 (Homo sapiens), sequence (P36888 whole entry, canonical isoform): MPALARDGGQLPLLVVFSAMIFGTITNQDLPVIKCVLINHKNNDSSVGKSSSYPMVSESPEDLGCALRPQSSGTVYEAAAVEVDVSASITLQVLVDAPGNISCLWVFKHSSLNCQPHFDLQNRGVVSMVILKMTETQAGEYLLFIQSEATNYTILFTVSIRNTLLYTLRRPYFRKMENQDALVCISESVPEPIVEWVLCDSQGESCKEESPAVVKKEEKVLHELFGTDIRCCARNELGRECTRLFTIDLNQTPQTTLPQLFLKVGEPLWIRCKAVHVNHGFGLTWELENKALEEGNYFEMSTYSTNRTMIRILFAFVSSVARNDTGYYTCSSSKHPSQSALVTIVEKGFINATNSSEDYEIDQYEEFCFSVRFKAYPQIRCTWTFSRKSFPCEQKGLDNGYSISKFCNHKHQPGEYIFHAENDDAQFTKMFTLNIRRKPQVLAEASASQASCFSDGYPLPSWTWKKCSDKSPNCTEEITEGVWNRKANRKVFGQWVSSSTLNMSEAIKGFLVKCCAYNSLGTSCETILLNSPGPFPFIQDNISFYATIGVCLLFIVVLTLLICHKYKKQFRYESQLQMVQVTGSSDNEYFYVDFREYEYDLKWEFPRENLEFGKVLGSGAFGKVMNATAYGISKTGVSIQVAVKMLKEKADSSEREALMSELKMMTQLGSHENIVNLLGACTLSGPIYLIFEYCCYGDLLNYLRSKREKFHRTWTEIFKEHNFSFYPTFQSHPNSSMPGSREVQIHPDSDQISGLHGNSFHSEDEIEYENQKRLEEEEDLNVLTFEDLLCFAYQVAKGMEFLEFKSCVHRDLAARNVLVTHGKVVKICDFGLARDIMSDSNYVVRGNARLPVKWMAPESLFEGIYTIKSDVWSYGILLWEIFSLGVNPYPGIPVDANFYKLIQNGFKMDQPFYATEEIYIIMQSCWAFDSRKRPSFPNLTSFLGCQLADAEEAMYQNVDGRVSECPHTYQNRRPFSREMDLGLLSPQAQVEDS

S=c1[nH]nc(-c2ccncc2)n1-c1ccc2ccccc2c1
residual activity [1]: 119% | residual activity [2]: 108% | residual activity [3]: 114% | residual activity [4]: 108% | residual activity [5]: 96% | residual activity [6]: 99% | residual activity [7]: 106% | residual activity [8]: 126% | residual activity [9]: 105% | residual activity [10]: 122% | residual activity [11]: 110% | residual activity [12]: 108% | residual activity [13]: 93% | residual activity [14]: 105% | residual activity [15]: 110% | residual activity [16]: 112% | residual activity [17]: 110% | residual activity [18]: 100% | residual activity [19]: 93% | residual activity [20]: 106% | residual activity [21]: 112% | residual activity [22]: 113% | residual activity [23]: 106% | residual activity [24]: 108% | residual activity [25]: 106% | residual activity [26]: 110% | residual activity [27]: 97% | residual activity [28]: 110%
